From ChEMBL document CHEMBL1909569 (Bioorg Med Chem Lett, 2011) come the findings set out here.

≈ marks a conversion by molar mass, not a printed value.

Type in all cases: functional
Assay [1] concerns Mycobacterium tuberculosis. The assay can be described thus: Antimicrobial activity against replicating Mycobacterium tuberculosis after 8 days by micro plate alamar blue assay. The following applies: 192 h. A general note: Alamar Blue is a resazurin reagent that responds to reducing activity.
For assay [2], the system named is Mycobacterium tuberculosis. As to the kind of experiment: Antimicrobial activity against non-replicating Mycobacterium tuberculosis after 11 days by luminescence based low oxygen recovery assay. The following applies: 264 h.
Assay [3] relates to Escherichia coli. As to the kind of experiment: Antimicrobial activity against wild type Escherichia coli TG2 after 16 to 20 hrs.
For assay [4], the system named is Escherichia coli. The assay can be described thus: Antimicrobial activity against wild type Escherichia coli DH5[alpha] after 16 to 20 hrs.
Assay [5] has as its system Escherichia coli. As to the kind of experiment: Antimicrobial activity against Escherichia coli EC2880 mutant after 16 to 20 hrs.

Usually MIC90 stands for an inhibitory concentration at the 90% level, which refers to growth in some studies and to a panel of isolates in others. A lower MIC90 goes with greater potency. Consider `CO[C@H]1/C=C/O[C@@]2(C)Oc3c(C)c(NCCO)c4c(c3C2=O)C(=O)C(/C=N/N2CCN(C)CC2)=C(NC(=O)/C(C)=C\C=C\[C@H](C)[C@H](O)[C@@H](C)[C@@H](O)[C@@H](C)[C@H](OC(C)=O)[C@@H]1C)C4=O`, for which the MIC90 in assay [1] is greater than 4.6 µM; in assay [2], greater than 18.5 µM.

For `COc1c(N2C[C@@H]3CCCN[C@@H]3C2)c(F)cc2c(=O)c(C(=O)O)cn(C3CC3)c12` [MOXIFLOXACIN], the MIC90 in assay [1] was 0.64 µM (≈ 0.257 µg/mL); in assay [2], 4.3 µM (≈ 1.73 µg/mL).

Turning to `CO[C@H]1/C=C/O[C@@]2(C)Oc3c(c4c5c(nn(CCO)c5c3C)C(=CC4=O)NC(=O)/C(C)=C\C=C\[C@H](C)[C@H](O)[C@@H](C)[C@@H](O)[C@@H](C)[C@H](OC(C)=O)[C@@H]1C)C2=O`, the MIC90 in assay [1] is greater than 5.4 µM; in assay [2], greater than 21.7 µM.

Regarding `CO[C@H]1/C=C/O[C@@]2(C)Oc3c(C)c(O)c4c(O)c(c(/C=N/N5CCN(C)CC5)c(O)c4c3C2=O)NC(=O)/C(C)=C\C=C\[C@H](C)[C@H](O)[C@@H](C)[C@@H](O)[C@@H](C)[C@H](OC(C)=O)[C@@H]1C` [RIFAMPIN], the MIC90 in assay [1] was 0.13 µM (≈ 0.107 µg/mL); in assay [2] it was 1.9 µM (≈ 1.56 µg/mL); with Escherichia coli [3], 12.5 µM (≈ 10.3 µg/mL); against Escherichia coli [4], 12.5 µM (≈ 10.3 µg/mL); against Escherichia coli [5] it was 0.1 µM (≈ 0.0823 µg/mL).

With `CO[C@H]1/C=C/O[C@@]2(C)Oc3c(C)c(NCc4ccccc4)c4c(c3C2=O)C(=O)C=C(NC(=O)/C(C)=C\C=C\[C@H](C)[C@H](O)[C@@H](C)[C@@H](O)[C@@H](C)[C@H](OC(C)=O)[C@@H]1C)C4=O`, the MIC90 was 2.4 µM (≈ 1.88 µg/mL) in assay [1] and greater than 20.4 µM in assay [2].

In the case of `CCNc1c(C)c2c3c4c1C(=O)C(=CC4=O)NC(=O)/C(C)=C\C=C\[C@H](C)[C@H](O)[C@@H](C)[C@@H](O)[C@@H](C)[C@H](OC(C)=O)[C@H](C)[C@@H](OC)/C=C/O[C@@](C)(O2)C3=O`, the MIC90 in assay [1] is 5.5 µM (≈ 3.98 µg/mL); in assay [2] it was 21.4 µM (≈ 15.5 µg/mL).

For `CO[C@H]1/C=C/O[C@@]2(C)Oc3c(C)c(OS(=O)(=O)c4ccc(C)cc4)c4c(c3C2=O)C(=O)C(/C=N/N2CCN(C)CC2)=C(NC(=O)/C(C)=C\C=C\[C@H](C)[C@H](O)[C@@H](C)[C@@H](O)[C@@H](C)[C@H](OC(C)=O)[C@@H]1C)C4=O`, the MIC90 in the assay with Escherichia coli [3] and in the assay with Escherichia coli [4] was greater than 100 µM in each case.

Take `O=[N+]([O-])c1cn2c(n1)OC[C@@H](OCc1ccc(OC(F)(F)F)cc1)C2` [PRETOMANID]: the MIC90 in assay [1] is 0.66 µM (≈ 0.237 µg/mL); in assay [2], 2.3 µM (≈ 0.826 µg/mL).

In the case of `CO[C@H]1/C=C/O[C@@]2(C)Oc3c(C)c(NCCO)c4c(c3C2=O)C(=O)C=C(NC(=O)/C(C)=C\C=C\[C@H](C)[C@H](O)[C@@H](C)[C@@H](O)[C@@H](C)[C@H](OC(C)=O)[C@@H]1C)C4=O`, the MIC90 in assay [1] was 5.32 µM (≈ 3.93 µg/mL); in assay [2] it was greater than 21.7 µM.

In the case of `CCNc1c(C)c2c3c4c(O)c(/C=N/N5CCN(C)CC5)c(c(O)c14)NC(=O)/C(C)=C\C=C\[C@H](C)[C@H](O)[C@@H](C)[C@@H](O)[C@@H](C)[C@H](OC(C)=O)[C@H](C)[C@@H](OC)/C=C/O[C@@](C)(O2)C3=O`, the values for the MIC90 in assay [1] and in assay [2] were greater than 4.7 µM and greater than 18.8 µM, respectively.

For `C/C=C/Nc1c(C)c2c3c4c(O)c(/C=N/N5CCN(C)CC5)c(c(O)c14)NC(=O)/C(C)=C\C=C\[C@H](C)[C@H](O)[C@@H](C)[C@@H](O)[C@@H](C)[C@H](OC(C)=O)[C@H](C)[C@@H](OC)/C=C/O[C@@](C)(O2)C3=O`, the values for the MIC90 in assay [1] and in assay [2] were greater than 4.6 µM and greater than 18.6 µM, respectively.

`C/C=C/Nc1c(C)c2c3c4c1C(=O)C(=CC4=O)NC(=O)/C(C)=C\C=C\[C@H](C)[C@H](O)[C@@H](C)[C@@H](O)[C@@H](C)[C@H](OC(C)=O)[C@H](C)[C@@H](OC)/C=C/O[C@@](C)(O2)C3=O`: the MIC90 in assay [1] is 5.2 µM (≈ 3.82 µg/mL); in assay [2], 18.3 µM (≈ 13.4 µg/mL).

Regarding `CO[C@H]1/C=C/O[C@@]2(C)Oc3c(C)c(NCc4ccccc4)c4c(c3C2=O)C(=O)C(/C=N/N2CCN(C)CC2)=C(NC(=O)/C(C)=C\C=C\[C@H](C)[C@H](O)[C@@H](C)[C@@H](O)[C@@H](C)[C@H](OC(C)=O)[C@@H]1C)C4=O`, the MIC90 in assay [1] is greater than 4.4 µM; in assay [2], greater than 17.6 µM.

For `CO[C@H]1/C=C/O[C@@]2(C)Oc3c(C)c(NC4CCCCCC4)c4c(O)c(c(/C=N/N5CCN(C)CC5)c(O)c4c3C2=O)NC(=O)/C(C)=C\C=C\[C@H](C)[C@H](O)[C@@H](C)[C@@H](O)[C@@H](C)[C@H](OC(C)=O)[C@@H]1C`, the MIC90 in assay [1] is 3.8 µM (≈ 3.49 µg/mL); in assay [2], greater than 17.4 µM.

With `C/C=C/Nc1c(C)c2c3c4c1C(=O)C(=C(/C=N/N1CCN(C)CC1)C4=O)NC(=O)/C(C)=C\C=C\[C@H](C)[C@H](O)[C@@H](C)[C@@H](O)[C@@H](C)[C@H](OC(C)=O)[C@H](C)[C@@H](OC)/C=C/O[C@@](C)(O2)C3=O`, the MIC90 in assay [1] was greater than 4.7 µM; in assay [2], greater than 18.6 µM.

Take `CNc1c(C)c2c3c4c1C(=O)C(=CC4=O)NC(=O)/C(C)=C\C=C\[C@H](C)[C@H](O)[C@@H](C)[C@@H](O)[C@@H](C)[C@H](OC(C)=O)[C@H](C)[C@@H](OC)/C=C/O[C@@](C)(O2)C3=O`: the values for the MIC90 in assay [1] and in assay [2] were greater than 5.6 µM and 20.6 µM (≈ 14.6 µg/mL), respectively.

As for `CCNc1c(C)c2c3c4c1C(=O)C(=C(/C=N/N1CCN(C)CC1)C4=O)NC(=O)/C(C)=C\C=C\[C@H](C)[C@H](O)[C@@H](C)[C@@H](O)[C@@H](C)[C@H](OC(C)=O)[C@H](C)[C@@H](OC)/C=C/O[C@@](C)(O2)C3=O`, the MIC90 in assay [1] was greater than 4.7 µM; in assay [2], greater than 18.9 µM.

Regarding `CO[C@H]1/C=C/O[C@@]2(C)Oc3c(C)c(NCCO)c4c(O)c(c(/C=N/N5CCN(C)CC5)c(O)c4c3C2=O)NC(=O)/C(C)=C\C=C\[C@H](C)[C@H](O)[C@@H](C)[C@@H](O)[C@@H](C)[C@H](OC(C)=O)[C@@H]1C`, the MIC90 is greater than 4.6 µM in assay [1] and greater than 18.5 µM in assay [2].

Take `CO[C@H]1/C=C/O[C@@]2(C)Oc3c(C)c(NCc4ccccc4)c4c(O)c(c(/C=N/N5CCN(C)CC5)c(O)c4c3C2=O)NC(=O)/C(C)=C\C=C\[C@H](C)[C@H](O)[C@@H](C)[C@@H](O)[C@@H](C)[C@H](OC(C)=O)[C@@H]1C`: the MIC90 in assay [1] was greater than 4.4 µM; in assay [2] it was greater than 17.5 µM.

Regarding `NNC(=O)c1ccncc1` [ISONIAZID], the MIC90 in assay [1] was 0.39 µM (≈ 0.0535 µg/mL); in assay [2], greater than 128 µM.

In the case of `CO[C@H]1/C=C/O[C@@]2(C)Oc3c(C)c(NC4CCCCCC4)c4c(c3C2=O)C(=O)C(/C=N/N2CCN(C)CC2)=C(NC(=O)/C(C)=C\C=C\[C@H](C)[C@H](O)[C@@H](C)[C@@H](O)[C@@H](C)[C@H](OC(C)=O)[C@@H]1C)C4=O`, the MIC90 stood at 3.9 µM (≈ 3.57 µg/mL) in assay [1] and 13.7 µM (≈ 12.6 µg/mL) in assay [2].

For `CONc1c(C)c2c3c4c1C(=O)C(=CC4=O)NC(=O)/C(C)=C\C=C\[C@H](C)[C@H](O)[C@@H](C)[C@@H](O)[C@@H](C)[C@H](OC(C)=O)[C@H](C)[C@@H](OC)/C=C/O[C@@](C)(O2)C3=O`, the MIC90 in assay [1] was 3.8 µM (≈ 2.75 µg/mL); in assay [2] it was 12.5 µM (≈ 9.06 µg/mL).
